Test results as given in patent publication EP0156772A2, “Novel pharmaceutical use for CGRPs” (SANDOZ AG, priority 1984, dated 1985).

What was measured:
[1] = Continuous on-line measurement of free calcium concentrations in the extra-corporeal blood circulation; format: in vivo, young rabbits; conditions: for calcaemic response: rat CGRP i.v.
Procedure: • The general scheme for this test is represented in figure 1 attached: • A flow-through electrode system with two Ca2+^-selective liquid membrane electrodes is inserted in the arterio-venous extracor- poreal blood circulatory system of the test animal this being established by means of indwelling catheters connecting the femoral artery with femoral vein.
The blood is pumped from the artery to the vein at a flow rate of 18 ml/h through the system containing Ca2+^-selective electrodes. A second peristaltic pump aspirates the reference solution of electrolytes, which is transported at a flow rate of 0.9 ml/h, passing the compartment of the reference electrode and mixed with the circulating blood at the site of the common electrode. The mixed fluids are then returned into the ciculatory system of the animal.
The Ca2+^-selective electrode allows the potentiometric measurement of the ionized calcium quantitatively. The potential difference between the reference electrode and the Ca2+^-selective electrode is measured differentially relative to the common electrode. The analogue signal of the difference amplifier is processed by a digital voltmeter. Results are obtained in mV and are continously recorded as a function of time. The voltage difference is […].
Following administration of CGRPs i.v. to the test animal, a potent influence on Ca2+ concentration over extended periods of time and up to at least 5 hours is observed at dosages of from about 0.1 to about 25 µg/kg. More importantly results observed indicate that CGRPs exert both a hypo- and hyper-calcaemic effect which is both dose- and time-dependent. […] Specific results obtained following Ix administration of rat CGRP at varying dosages and illustrating activity profile are shown in the accompanying Figs. 2 through 5. • In all cases administration of test substance occurs at time • Fig.2 .: This is a plot for observed change in calcium level [Δ% calcaemia] with time, following i.v. administration of rat CGRP at dosages of from 0.156 µg/kg to 5.0 µg/kg.

[2] = Clinical trial A: human CGRP in active Paget's disease, serum parameters prior and post administration; format: in vivo, volunteer subjects (male and female)
Procedure: Human CGRP is employed as trial substance and is tested by administration in accordance with the following regimens.
The following parameters are measured prior and post-administration: circulating calcium serum levels: alkaline phosphatase: hydroxyproline: bone specific protein levels.

[3] = Clinical trial B: human CGRP s.c. accompanied by salmon or human calcitonin; format: in vivo, volunteer subjects (male and female); conditions: human CGRP s.c. 10 to 200 µg accompanied by salmon or human calcitonin 5 to 100 I.U. (or M.R.C) s.c. or i.m.
Description: The methodology of clinical trial A is repeated, with administration of human CGRP in accordance with regimen 1.3. In this trial however administration is accompanied by administration of salmon or human calcitonin at dosages of from 5 to 100 I.U. (or M.R.C), [e.g. at dosages of 5, 10, 25, 50 or 100 I.U. (or M.R.C.)] administered by injection either s.c. or i.m.

CC(C)C[C@H](NC(=O)CNC(=O)[C@H](C)NC(=O)[C@H](CC(C)C)NC(=O)[C@H](CCCNC(=N)N)NC(=O)[C@H](Cc1c[nH]cn1)NC(=O)[C@@H](NC(=O)[C@@H](NC(=O)[C@@H]1CSSC[C@H](NC(=O)[C@H](C)N)C(=O)N[C@@H](CC(=O)O)C(=O)N[C@@H]([C@@H](C)O)C(=O)N[C@@H](C)C(=O)N[C@@H]([C@@H](C)O)C(=O)N1)C(C)C)[C@@H](C)O)C(=O)N[C@@H](CC(C)C)C(=O)N[C@@H](CO)C(=O)N[C@@H](CCCNC(=N)N)C(=O)N[C@@H](CO)C(=O)NCC(=O)NCC(=O)N[C@H](C(=O)N[C@H](C(=O)N[C@@H](CCCCN)C(=O)N[C@@H](CC(N)=O)C(=O)N[C@@H](CC(N)=O)C(=O)N[C@@H](Cc1ccccc1)C(=O)N[C@H](C(=O)N1CCC[C@H]1C(=O)N[C@H](C(=O)N[C@@H](CC(N)=O)C(=O)N[C@H](C(=O)NCC(=O)N[C@@H](CO)C(=O)N[C@@H](CCCCN)C(=O)N[C@@H](C)C(=O)N[C@@H](Cc1ccccc1)C(N)=O)C(C)C)[C@@H](C)O)C(C)C)C(C)C)C(C)C [human CGRP]
observed change in calcium level, course of response ([1]; Fig. 6, i.v., 2.5 µg/kg, groups of 6 animals): parallels that recorded for rat CGRP in Fig. 5
circulating serum calcium levels ([2]; i.v. 0.1 to 20 µg, i.v. infusion 10 to 100 µg, s.c. 10 to 200 µg, intranasal 10 to 500 µg, or s.c. daily for 5 to 7 days): significant reduction
alkaline phosphatase levels ([2]; same regimens): concomitant reduction
hydroxyproline levels ([2]; same regimens): concomitant reduction
bone specific proteins ([2]; same regimens, in particular proteins reflecting bone metabolic turn over): marked reduction
influence on measured serum parameters [3]: observed in this trial as in trial A
reduction of circulating serum calcium levels ([3]; compared with salmon calcitonin alone): superior to that observed on administration of salmon calcitonin alone

CC(C)C[C@H](NC(=O)CNC(=O)[C@H](C)NC(=O)[C@H](CC(C)C)NC(=O)[C@H](CCCNC(=N)N)NC(=O)[C@H](Cc1c[nH]cn1)NC(=O)[C@@H](NC(=O)[C@@H](NC(=O)[C@@H]1CSSC[C@H](NC(=O)[C@@H](N)CO)C(=O)N[C@@H](CC(N)=O)C(=O)N[C@@H]([C@@H](C)O)C(=O)N[C@@H](C)C(=O)N[C@@H]([C@@H](C)O)C(=O)N1)C(C)C)[C@@H](C)O)C(=O)N[C@@H](CC(C)C)C(=O)N[C@@H](CO)C(=O)N[C@@H](CCCNC(=N)N)C(=O)N[C@@H](CO)C(=O)NCC(=O)NCC(=O)N[C@H](C(=O)N[C@H](C(=O)N[C@@H](CCCCN)C(=O)N[C@@H](CC(=O)O)C(=O)N[C@@H](CC(N)=O)C(=O)N[C@@H](Cc1ccccc1)C(=O)N[C@H](C(=O)N1CCC[C@H]1C(=O)N[C@H](C(=O)N[C@@H](CC(N)=O)C(=O)N[C@H](C(=O)NCC(=O)N[C@@H](CO)C(=O)N[C@@H](CCC(=O)O)C(=O)N[C@@H](C)C(=O)N[C@@H](Cc1ccccc1)C(N)=O)C(C)C)[C@@H](C)O)C(C)C)C(C)C)C(C)C [rat CGRP]
AUCS (areas under curve) ([1]; Fig. 2, i.v., 0.156 µg/kg to 5.0 µg/kg, calcium level versus time): statistically linear
observed change in calcium level [Δ% calcaemia] ([1]; Fig. 2, i.v., dosages of from 0.156 µg/kg to 5.0 µg/kg): decrease (hypocalcaemia)
observed change in calcium level after the initial hypocalcaemic response ([1]; Fig. 5, 10 pg/kg i.v.): reverse hypercalcaemic response which continues very strongly
hypocalcaemic response ([1]; Fig. 5, 10 pg/kg i.v., compared with untreated control): though strongly marked, is transitory only
duration of hypercalcaemic response following initial administration ([1]; Fig. 5, 10 pg/kg i.v., printed 'up to at least 5 hours'): at least 5 hours
observed change in calcium level ([1]; Figs 3 to 4, i.v., 2.5 and 5.0 µg/kg, groups of four test animals, compared with untreated controls): hypocalcaemia is again observed
calcaemic response [1]: primarily hypo- calcaemic response
calcaemic response ([1]; dosages in excess of 5 µg/kg): primarily hyper-calcaemic response preceeded by a transient hypo-calcaemic response at the lower end of the dosage range
